The values that follow are results of earlier work, collected in US12678439B2 (DOUGLAS PHARMACEUTICALS LIMITED, priority 2018, dated 2026).

Consider `Cc1cccc(C)c1OCC(=O)N[C@@H](Cc1ccccc1)[C@@H](O)C[C@H](Cc1ccccc1)NC(=O)[C@H](C(C)C)N1CCCNC1=O` (relative stereo) [Lopinavir, [1S-[1R*(R*), 3R*, 4R*]]—N-[4-[(2,6-dimethylphenoxyl0acetyl]amino]-3-hydroxy-5-phenyl-1-(phenylmethyl)pentyl]tetrahydro-alpha-(1-methylethyl)-2-oxo-1(2H)-pyrimidineacetamide], for which the solubility in water result is on record as “virtually insoluble”.
